Source: US20110053163A1, “Biomarker” (BIOVATOR TECHNOLOGIES AB, priority 2007, published 2011)
Read-outs that look alike come from different tables or passages of the source.

Tests used:
Assay type in all cases: cell-based, human
MonoMac-6 cells = test: Cytokine Profile Assay (CPA): neopterin production by stimulated MonoMac-6 cells, ELISA; conditions: for neopterin release (in words): chemicals, in the presence or absence of IFN-γ
From the text: (§1) The instructions of the manufacturers were followed. All these tests are enzyme immunoassays (EIA:s). The principle is that microtiter plate wells are labelled with a cytokine specific capture antibody. If cytokine is present in the samples added to the wells it will be captured to the bottom of the well. […] The reaction is thereafter measured as colour developed after addition of a substrate for the enzyme. The values for the test wells are compared with a standard curve obtained by adding a series of known amounts of cytokine. The values obtained for control wells with no substance added are used as background values for cytokine levels.
The myelomonocytic cell line MonoMac-6 (obtained from DSMZ, accession number ACC 124, Prof. H. W. L. Ziegler-Heitbrock, Inst. For Immunology, University of Munich, Munich) was cultured in cell culture flasks (Corning). Cells were cultured in RPMI 1640 medium (Gibco BRL), containing 20 mM HEPES and L-glutamine and supplemented with 10% heat-inactivated foetal bovine serum (Gibco BRL), penicillin (100 U/mL; Sigma-Aldrich), streptomycin (100 μg/mL; Sigma-Aldrich), sodium pyruvate (1.0 mM;Gibco BRL), human insulin (9 μg/mL; Gibco BRL) and non-essential amino acids (Gibco BRL) or cultured in Panserin 411 (Pan Biotech) supplemented with penicillin (100 U/mL), streptomycin (100 μg/mL).
The cells were split approximately 1:3 the day before stimulation. The stimulation procedure was performed in three steps. The first step was pre-dilution of test substances, to double the final concentration, in cell culture medium. Furthermore, Interferon-γ (IFN-γ) (100 U, PreproTech) was added in the cell culture media for 24 or 48 hours during stimulation of cells with test substances. The number of cells was then determined by trypan blue exclusion and the cells were diluted to twice the final test concentration (2×10^6 cells/mL) if not otherwise indicated and 100 μl of cell suspension was added per well in 96 well tissue culture plates (Corning). Finally, a 100 μl of pre-diluted test substance (triplicate cultures) was added to the tissue culture plates. […] The stimulated cells were cultured at 37° C., 5% CO2, for 24 or 48 hours. The cell suspension was transferred to new cell culture plates and stored at −20° C. until analyzed. Thereafter the cell suspension was analyzed for presence of neopterin and IL-10 by ELISA (IBL-Hamburg) following the manufacturers instructions.

THP-1 cells = test: CPA: neopterin production by stimulated THP-1 cells; conditions: RPMI+10% FCS, 24 hrs, different concentrations
From the text: as §1
(§2) The cells were split approximately 1:3 the day before stimulation. The stimulation procedure was performed in three steps. The first step was pre-dilution of test substances, to double the final concentration, in cell culture medium. […] The number of cells was then determined by trypan blue exclusion and the cells were diluted to twice the final test concentration (2×10^6 cells/mL) if not otherwise indicated and 100 μl of cell suspension was added per well in 96 well tissue culture plates (Corning). […] The cell suspension was transferred to new cell culture plates and stored at −20° C. until analyzed. Thereafter the cell suspension was analyzed for presence of neopterin and IL-10 by ELISA (IBL-Hamburg) following the manufacturers instructions.

MM6-cells = test: CPA: IL-10 levels of stimulated MM6 cells, ELISA; conditions: 25-200 μg/ml; 48 hours; with IFN-γ 100 U/ml
From the text: as §1, with “levels. […]” for “levels.”
as §2, with “stimulation.” for “stimulation. The stimulation procedure was performed in three steps. The first step was pre-dilution of test substances, to double the final concentration, in cell culture medium.”

[1] = proteins, RPMI+10% FCS, 24 hrs, with IFN-γ 100 U/ml, over the tested concentrations

O=[N+]([O-])c1ccc(Cl)c([N+](=O)[O-])c1 [DNCB, 2,4 Dinitrocholorobenzene, reference compound]
neopterin release (in words) (MonoMac-6 cells; RPMI+10% FCS, 24 hrs): none of the chemicals tested induced any neopterin release above background levels

[Cl][Pt-2]([Cl])([Cl])([Cl])([Cl])[Cl].[NH4+].[NH4+] [HCPt, Ammonium hexachloroplatinate, reference compound]
neopterin release (in words) (MonoMac-6 cells; RPMI+10% FCS, 24 hrs): none of the chemicals tested induced any neopterin release above background levels

CCOC(=O)c1ccc(N)cc1 [benzocaine, Benzocaine, reference compound]
neopterin response (in words) (MonoMac-6 cells; chemical at 30 μg/ml, with IFN-γ, RPMI+10% FCS, 24 hrs): induced a neopterin response above background levels

Oc1ccccc1 [phenol, reference compound]
neopterin response (in words) (MonoMac-6 cells): induced a neopterin response above background levels

Lipopolysaccharide [LPS]
neopterin response (in words) (THP-1 cells): Dose response was seen

Soy lectin: Lectin: glycine max (soy been) (Medicago), low potential of being allergenic
neopterin response (in words) (MonoMac-6 cells; 6.6 μg/ml, RPMI+10% FCS, 24 hrs, with IFN-γ): did not induce any neopterin response above the levels of control cells
neopterin response (in words) (MonoMac-6 cells; 180 μg/ml, RPMI+10% FCS, 24 hrs, with IFN-γ): comparable to the cellular response towards Ara h 2 at 6.6 μg/ml
neopterin response (in words) (MonoMac-6 cells; [1]): Weak cellular neopterin responce
neopterin response (in words) (MonoMac-6 cells; proteins, RPMI+10% FCS, 24 hrs, with IFN-γ 100 U/ml, over the tested concentrations, listed as soy lectin): did not induce neopterin above background levels

gelatin
neopterin response (in words) (MonoMac-6 cells; [1]): did not induce any neopterin production above the background levels
IL-10 levels (in words) (MM6-cells): did not induce IL-10 above background levels
